“And” between values parts separate entries of the source, which are not always exact repeats. Identical values can stand only once. Blank lines part the entries; values can stand above or below the compound they belong to.
Legend:
[1] = test system: prostate-derived stromal cell line PSC27 and epithelial cancer cell line PC3 xenograft tumors; experiment: Preclinical chemotherapy trial, subcutaneous PC3/PSC27 tissue-recombinant tumors, terminal tumor volume; format: in vivo, ICR-SCID mice; conditions: for decrease in terminal tumor volume: mitoxantrone alone vs no drug (group 6 vs group 5); for further decrease in terminal tumor volume: inhibitor combined with mitoxantrone (MIT) vs mitoxantrone alone (group 8 vs group 6)
Method: All experimental mouse experiments were carried out in strict accordance with the relevant regulations of the Institutional animal care and use committee (IACUC) of the shanghai Institute of Life Sciences of the Chinese Academy of Sciences. ICR-SCID mice at an age of about 6 weeks (about 25 g in body weight) were used in this patent-related animal experiment. Stromal cells PSC27 and epithelial cells were mixed at a ratio of 1:4, with each implant containing 1.25×10^6 cells for tissue recombination. The transplant tumor was implanted into mice subcutaneously, and the animals were euthanized at the end of Week 8 after transplantation. The tumor volume was calculated according to the following formula: V=(π/6)×((l+w)/2)^3 (V, volume; l, length; w, width). Similarly, lung and breast cancer xenograft tumors were formed by tissue recombination with A549 (non-small cell lung cancer cell line) and W138 (lung fibroblast line), MDA-MB-231 (triple negative breast cancer cell line) and HBF1203 (breast fibroblast line), respectively.
In the preclinical chemotherapy trial, mice subcutaneously transplanted with tumors were fed standard experimental diet. After 2 weeks, the chemotherapeutics mitoxantrone (dose of 0.2 mg/kg) and/or SASP inhibitors (500 μl, dose of 10 mg/kg, RAD001, SB203580 and 5Z-7 were purchased from Tocris; LYTAK, purchased from Lilly Co ((Indianapolis, Ind.), 5 mg/kg) were administrated intraperitoneally. The timepoint was the first day of Week 3, 5, 7, and the whole course of treatment was composed of three cycles of administration, each cycle lasted for 2 weeks. After the course of treatment, mouse […] was collected for tumor measurement and histological analysis. Each mouse received cumulatively 0.6 mg mitoxantrone/kg body weight and 30 mg SASP inhibitor/kg body (15 mg/kg body weight for LYTAK1). Mice xenografted with lung cancer and breast cancer tumor received bleomycin (totally 0.3 mg/kg) and doxorubicin (totally 0.2 mg/kg), respectively. The timepoints and frequency were same as the administration of mitoxantrone. The chemotherapeutic trial was performed until the end of Week 8, and the mice were dissected immediately after death. The transplant tumors were collected and used for analysis in a pathological system.
In order to simulate clinical conditions as much as possible, the present inventor inoculated the subcutaneous site of immunodeficient mice with an admixture of prostate-derived stromal cell line PSC27 and epithelial cancer cell line PC3. The mice subsequently underwent a regimen of 8-week preclinical chemotherapy, which included three single- or double-drug treatments based on a series of pre-experimental data (FIGS. 64 and 65). In the absence of stromal cells, PC3 cells were still able to form tumors under screening pressure caused by chemotherapeutics, though their volumes were smaller than that generated in the case of concurrent inoculation of stromal cells and cancer cells. Such difference also objectively confirmed the tumor-promoting effect of the microenvironment (FIG. 66).

NF-κB complex = experiment: NF-κB activation in bleomycin-treated stromal cells (nuclear translocation, luciferase reporter); format: cell-based, human; conditions: for NF-κB transcriptional activity (reporter vector): bleomycin plus inhibitor, luciferase reporter
Method: FIG. 22. The stromal cells pre-transduced with the NF-κB transcriptional luciferase reporter vector were treated with bleomycin and/or RAD001. The cells were collected on Day 7 and detected for the fluorescence signal intensity of the reporter vector.
FIG. 32. Detection of NF-kB transcriptional activity based on the reporter vector. Stromal cells were treated with bleomycin along with the PI3K small molecule inhibitor LY294002 (1 μM), Akt inhibitor MK-2206 (100 nM), mTOR inhibitor RAD001 (50 nM), p38 inhibitor SB203580 (10 μM) and TAK1 inhibitor 5Z-7 (500 nM), respectively, and cell lysates were used for determining luciferase activity.
The […] vector pBABE-puro-IκBα-mut (Super repressor) containing two phosphorylated mutant sites of IKK at S32A and S34A on the IκBα protein encoding sequence were used for transfection of lentivirus-packing cell line phoenix. Lentiviruses were subsequently used to infect PSC27 stromal cell line, whereas 1 μg/ml puromycin was used to screen positive clones. As another method, 5 μm of the small molecule inhibitor Bay11-7082 (purchased from Selleck) was used for NF-κB activity control. Stromal cells were subsequently exposed to several different forms of cytotoxicity, with the resulting phenotype recorded in time, and the relevant gene expression analyzed. The resulted conditioned culture medium produced from cells processed in this way was collected for various detection of epithelial cells.
Even so, is TAK1 activated indirectly by upstream DDR signaling associated with activation of a core transcription factor, NF-κB complex involved in the broad-spectrum expression of the SASP? The NF-κB complex was previously reported to be mediated by mono-ubiquitination of IκB kinase subunit γ (IKKγ) in cytoplasm. After isolating nucleus from cytoplasmic proteins using a kit, the inventor finds that TAK1 phosphorylation is associated with nuclear translocation of p50 and p65, the two main subunits of NF-κB complex (FIG. 4).

IL-8 = IL-8 protein expression of damaged stromal cells (Western blot, ELISA); format: cell-based, human; conditions: ELISA of extracellular fluid, bleomycin plus inhibitor
Method: FIG. 15. The stromal cells were collected on Day 7 after bleomycin and/or 5Z-7 treatment. The lysates were analyzed by Western blot for their phosphorylation levels of ATM and TAK1, and activation of TAK1 downstream substrate JN K and p38. IL-8, a chemokine was used as a marker secreted factor of SASP, whose expression level was simultaneously analyzed. FIG. 33. The extracellular fluid released by each group of cells were tested by ELISA to determine the protein expression level of the secreted factor IL-8.

mTOR = target: T1, mTOR (Homo sapiens, UniProt P42345+P62942); experiment: Western blot of Akt/mTOR pathway activation in bleomycin-treated stromal cells; format: cell-based
T1 construct: endogenous in cells; host or cells: PSC27 human prostate stromal cells
Method: (§1) The nitrocellulose filter membrane was blocked at room temperature for 1 h in the blocking solution (TBST containing 5% skim milk powder (0.1% Tween-20 in TBS)), incubated overnight at 4° C. in a primary antibody solution, rinsed at TBST room temperature for 3 times, each for 2 min. The corresponding secondary antibody conjugated with HRP prepared with the blocking solution was added, the filter membrane was incubated at room temperature for 0.5 h. The filter membrane was rinsed with PBST at room temperature for 3 times, each for 2 min.

TAK1 = target: T2, TAK1 (Homo sapiens, UniProt O43318); experiment: IP, in vitro kinase assay and Western blot of TAK1 activation in damaged PSC27 stromal cells; format: cell-based; conditions: PSC27 cells treated with IL-1α (20 ng/ml)
T2 construct: PSC27 cells were treated with bleomycin and cell lysates were subject to anti-p-TAK1-mediated IP precipitation; endogenous in cells; host or cells: PSC27 human prostate stromal cells
T2 sequence (O43318 1-606): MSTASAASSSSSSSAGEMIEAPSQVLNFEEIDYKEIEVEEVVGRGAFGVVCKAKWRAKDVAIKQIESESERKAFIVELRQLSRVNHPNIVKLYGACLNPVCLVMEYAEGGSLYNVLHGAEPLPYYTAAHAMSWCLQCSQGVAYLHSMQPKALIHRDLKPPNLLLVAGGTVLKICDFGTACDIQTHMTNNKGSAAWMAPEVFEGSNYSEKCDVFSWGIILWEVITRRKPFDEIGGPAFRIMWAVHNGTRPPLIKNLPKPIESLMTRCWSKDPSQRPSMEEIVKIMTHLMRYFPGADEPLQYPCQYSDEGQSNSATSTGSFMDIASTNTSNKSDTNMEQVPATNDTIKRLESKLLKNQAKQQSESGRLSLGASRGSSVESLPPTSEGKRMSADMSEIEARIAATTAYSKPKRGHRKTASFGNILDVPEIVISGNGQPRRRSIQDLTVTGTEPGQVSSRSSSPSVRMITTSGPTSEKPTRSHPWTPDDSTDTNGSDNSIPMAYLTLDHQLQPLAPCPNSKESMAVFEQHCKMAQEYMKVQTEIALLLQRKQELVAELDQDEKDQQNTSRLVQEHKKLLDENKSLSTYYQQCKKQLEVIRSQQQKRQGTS
Method: In the presence of the TAK1 inhibitor 5Z-7, PSC27 cells were treated with bleomycin and cell lysates were subject to anti-p-TAK1-mediated IP precipitation. IP products were analyzed by in vitro kinase assay, and MKK6 was used as TAK1 substrate. p38 phosphorylation was analyzed by Western blot with GAPDH as the loading control. In addition, IL-1α (20 ng/ml) was used to treat stromal cells and was further analyzed by similar IP and in vitro kinase assay.

p38MAPK, JNK, ATM = experiment: Western blot of JNK, p38MAPK and ATM phosphorylation in damaged stromal cells; format: cell-based, human; conditions: bleomycin and/or SB203580
Method: as §1

PSC27 cells = experiment: DNA damage response foci, colony formation, cell cycle arrest and SA-β-Gal in PSC27 cells; format: cell-based, human
Method: Experimental Treatment In Vitro • 100 nM docetaxel (DTX), 100 nM paclitaxel (PTX), 200 nM vincristine (VCR), 50 μg/ml bleomycin (BLEO), 1 μM mitoxantrone (MIT), or 10 Gy ^137CS ionizating radiation (γ-radiation at 743 rad/min, RAD) was added to the culture medium when PSC27 cells grown to 80% (PSC27-Pre) to produce cell damage. After drug treatment for 6 hours, the cells were simply washed by PBS for 3 times and kept in the culture medium for 7 to 10 days, followed by subsequent experiments. […] Immunofluorescence and Histochemical Analysis • Mouse monoclonal antibody anti-phospho-Histone H2A.X (Ser139) (clone JBW301, Millipore) or mouse monoclonal antibody anti-Phosphor-53BP1 (Cat #sc-135748, Santa Cruz), and secondary antibody Alexa Fluor® 488 (or 594)-conjugated F(ab′)2 were added sequentially to slides on which cells were fixed. Nuclei were counterstained with 2 μg/ml of 4′,6-diamidino-2-phenylindole (DAPI). The most representative image was selected from the 3 observation fields for data analysis and result presentation. FV1000 laser scanning confocal microscopy (Olympus) was used to obtain cellular confocal fluorescence images to determine the extent of DNA damage. • Antibody anti-TAK1 used for histological IHC staining in clinical prostate, non-small cell lung cancer patients and breast cancer patients, was purchased from Proteintech, idib.

Compound: O=C1c2c(O)ccc(O)c2C(=O)c2c(NCCNCCO)ccc(NCCNCCO)c21 [mitoxantrone]
decrease in terminal tumor volume ([1]; end of Week 8): 37%
decrease in terminal tumor volume ([1]; end of Week 8, listed as MIT): 37% and 36%

activity of mTOR (mTOR; simultaneous treatment of bleomycin and MK-2206): significantly downregulated
Compound: NC1(c2ccc(-c3nc4ccn5c(=O)[nH]nc5c4cc3-c3ccccc3)cc2)CCC1 [MK-2206]
NF-κB transcriptional activity (reporter vector) (NF-κB complex): significantly reduced
chemokine IL-8 protein levels induced by DNA damage (IL-8): significantly reduced

Compound: IL-1α: cytokine, known upstream regulatory factor for TAK1
TAK1/MKK6 interaction (TAK1): significantly enhanced
p38 kinase activity (TAK1): significantly increased

Compound: C[S+]([O-])c1ccc(-c2nc(-c3ccncc3)c(-c3ccc(F)cc3)[nH]2)cc1 (centres unmarked) [SB203580]
NF-κB transcriptional activity (reporter vector) (NF-κB complex): significantly reduced
chemokine IL-8 protein levels induced by DNA damage (IL-8): significantly reduced
further decrease in terminal tumor volume ([1]; end of Week 8): 46%
phosphorylation level of p38 (p38MAPK, JNK, ATM): significantly reduce

activation of mTOR substrates S6K1 and 4E-BP1 (mTOR; bleomycin and/or RAD001, Day 7): inhibition of S6K1 and 4E-BP1 activation
Compound: CO[C@H]1C[C@@H]2CC[C@@H](C)[C@@](O)(O2)C(=O)C(=O)N2CCCC[C@H]2C(=O)O[C@H]([C@H](C)C[C@@H]2CC[C@@H](OCCO)[C@H](OC)C2)CC(=O)[C@H](C)/C=C(\C)[C@@H](O)[C@@H](OC)C(=O)[C@H](C)C[C@H](C)/C=C/C=C/C=C/1C [RAD001]
phosphorylation of IKKβ, degradation of IRAK1 and IkBα, nuclear translocation of p65 and p50 (NF-κB complex; after DNA damage, RAD001 added to the medium): largely abolished
NF-κB transcriptional activity (reporter vector) (NF-κB complex): significantly attenuated
cell cycle arrest and SA-β-Gal activity (PSC27 cells; bleomycin-damaged stromal cells in the presence of RAD001): remained unaffected
single-cell level of DDR foci (PSC27 cells; bleomycin-treated cells, presence or absence of inhibitor): remained unchanged
further decrease in terminal tumor volume ([1]; end of Week 8): 44%

Source: patent publication US11344601B2, “Tumor microenvironment-related target TAK1 and application thereof in inhibition of tumor” (Shanghai Institutes for Biological Sciences, Chinese …, priority 2017, dated 2022)
